Series [1] concerns NALM-6 (B-lineage ALL). Description: MTT cytotoxicity assay, NALM-6. The series is classed as cell-based. The note with it: Homo sapiens, NALM-6 cells, 24-36 hours incubation. Here is the method:
(§1) The cytotoxicity of compound II was evaluated against two acute lymphoblastic leukemia (ALL) cell lines, NALM-6 (B-lineage ALL), and MOLT-3 (T-lineage ALL) using MTT (3-[4,5-dimethylthiazol-2-yl]-2,5-diphenyl tetrazolium bromide) assay (Boehringer Mannheim Corp., Indianapolis, Ind. The human leukemic cell lines (NALM-6, and MOLT-3) were obtained from the American Type Culture Collection and maintained as a continuous cell line in Dulbecco's modified Eagles's medium supplemented with 10% fetal bovine serum and antibiotics. Briefly, exponentially growing cells were seeded into a 96-well plate at a density of 2.5×10^4 cells/well and incubated for 36 hours at 37° C. prior to exposure to the compound. On the day of treatment, culture medium was carefully aspirated from the wells and replaced with fresh medium containing compound II at concentrations ranging from 0.1 to 250 μM. Triplicate wells were used for each treatment.
(§2) The cells were incubated with compound II for 24-36 hours at 37° C. in a humidified 5% CO2 atmosphere. […] The absorbance of each well was measured in a microplate reader (Labsystems) at 540 nm and a reference wavelength of 690 nm. […] The percent survival was calculated using the formula: [formula]
(§3) The IC50 values for cytotoxic activity were determined using Graph-pad Prism software, version 2.0 (San Diego, Calif., USA) and are shown below in Table 1.

In series [2] the test system is MOLT-3 (T-lineage ALL). Description: MTT cytotoxicity assay, MOLT-3. As to conditions: Homo sapiens, MOLT-3 cells, 24-36 hours incubation. Type of series: cell-based. How it is done: as §1, §2, §3
A general note: Tetrazolium assays rely on reduction of a dye to a coloured formazan, in cell work by metabolically active cells.

The values that follow come from patent US6686344B1, “Organic-arsonic compounds” (Paker Hughes Institute, priority 2003, dated 2004).

The structures appear in SMILES notation.

For orientation: IC50 means the concentration needed to halve the response being measured. A high value points to a need for much substance. As usually defined, the melting point is the temperature, or range, at which the solid turns liquid. In turn, `O=[As](O)(O)c1ccc(N=Nc2ccc(Nc3nc(C(Cl)(Cl)Cl)nc4ccccc34)cc2)cc1` [Compound II, 2-Trichloromethyl-4-4-[4′-(4″-phenylazo)phenylarsonic Acid]-aminoquinazoline] showed a melting point greater than 300 °C. In series [1], this compound gave an IC50 of 1.1 ± 0.5 µM. This compound also registered an IC50 in series [2] of 2 ± 0.8 µM.
